From patent US20220050096A1, “ANALYTE-SENSITIVE PROBES AND CONTACT LENS FOR DIAGNOSIS OF OCULAR PATHOLOGIES” (University Of Maryland, Baltimore, priority 2020, published 2022)

Assay: Chloride-dependent intensity decay analysis of SPQ-C18 in MyDay contact lenses, 20 mM MOPS pH 7.3
Type: physicochemical
Description: Fluorescence Spectroscopic Measurements. Fluorescence intensities and intensity decays were measured using a Varian™ Eclipse 4 spectrofluorometer and a FluoTime300 instrument from PicoQuant™ (Berlin, Germany) and analyzed with the EasyTau™ software. The excitation source was a 473 nm laser diode with a repetition rate of 40 MHZ and a pulse width less than 100 ps. In other embodiments, the excitation source for SG-PL was at 495 nm from a Solea™ supercontinuum laser (PicoQuant™, Germany) and a 375 nm laser diode (PDL 375, PicoQuant™), a repetition rate of 40 MHz, and a pulse width less than 100 ps. Some intensity and lifetime measurements for SG-PL (as indicated) were performed using Alba V confocal fluorescence lifetime microscopy, FLIM (ISS, Urbana, Ill.), with excitation source of a 473 nm laser diode with a repetition rate of 40 MHz and a pulse width near 250 ps.
Intensity decays were measured at the emission maximum with the band of 10 to 20 nm, analyzed in terms of the multi-exponential model:
I(t)=Σαi exp(−t/ti) (equation 1)
where ti are the individual decay times and αi the initial time-zero amplitudes. The mean decay time can be represented in two ways. The average lifetime is given by:
where Σαi=1.0 and Σfi=1.0. The term fi=αi τi is proportional to the fractional contribution of each component to the total intensity decay. The term τi/Σαi τi is the fractional contribution to the steady state emission. Here, we use the amplitude-weighted lifetime given by
which is appropriate when the emission is from a single fluorophore with a changing quantum yield. For a single exponential decay, the lifetime is given by τ=1.0/(knr+Γ) and the quantum yield is given by Q=Γ/(knr+Γ) where knr is the sum of all non-radiative decay rates and Γ is the radiative decay rate. The value of Γ is determined by the molecular extinction coefficient that remains constant under most conditions. For a single type of fluorophore with a constant value of Γ the normalized αi values represent the molecular fraction of each decay time component. The value of αi and τi were determined by non-linear least squares fitting using PicoQuant™ software.
Quenching by Chloride. Collisional quenching occurs, for example, when SPQ-C18 (also referred to as OD-MQB (N-Octadecyl-6-methoxyquinolinium bromide)) has a diffusion collision with a chloride ion. The intensities (I) and lifetimes (6) are analyzed using the Stern-Volmer equation,
SPQ-C18 was synthesized using 6-methoxy quinolinium (SPQ) and 1-bromooctadecane (C18) as described in the art. Lenses were labeled by incubation with 3 ml of a 1 μM solution of SPQ-C18 in methanol-water. SPQ-C18 bound rapidly to the Biofinity™ lenses. […] Unless stated otherwise, all spectral measurements conducted for the present study were performed in 20 mM MOPS buffer, 8 mM KCl, pH 7.2, at room temperature.

## CCCCCCCCCCCCCCCCCC[n+]1cccc2cc(OC)ccc21 [SPQ-C18, N-Octadecyl-6-methoxyquinolinium bromide]
NaCl 0 mM
  f1: 0.074
  f2: 0.191
  f3: 0.735
  α1: 0.560
  α2: 0.187
  α3: 0.253
  τ1: 1.03 ns
  τ2: 8.00 ns
  τ3: 22.78 ns
  τf: 18.36 ns
  τα: 7.83 ns
NaCl 10 mM
  f1: 0.078
  f2: 0.315
  f3: 0.607
  α1: 0.496
  α2: 0.290
  α3: 0.214
  τ1: 1.05 ns
  τ2: 7.22 ns
  τ3: 18.80 ns
  τf: 13.76 ns
  τα: 6.63 ns
NaCl 20 mM
  f1: 0.102
  f2: 0.306
  f3: 0.592
  α1: 0.554
  α2: 0.263
  α3: 0.183
  τ1: 1.12 ns
  τ2: 7.04 ns
  τ3: 19.59 ns
  τf: 13.86 ns
  τα: 6.05 ns
NaCl 40 mM
  f1: 0.126
  f2: 0.375
  f3: 0.499
  α1: 0.590
  α2: 0.275
  α3: 0.136
  τ1: 1.06 ns
  τ2: 6.78 ns
  τ3: 18.24 ns
  τf: 11.78 ns
  τα: 4.96 ns
NaCl 80 mM
  f1: 0.148
  f2: 0.373
  f3: 0.478
  α1: 0.601
  α2: 0.284
  α3: 0.115
  τ1: 1.05 ns
  τ2: 5.58 ns
  τ3: 17.70 ns
  τf: 10.71 ns
  τα: 4.25 ns
NaCl 140 mM
  f1: 0.177
  f2: 0.368
  f3: 0.455
  α1: 0.649
  α2: 0.253
  α3: 0.099
  τ1: 1.01 ns
  τ2: 5.39 ns
  τ3: 17.05 ns
  τf: 9.92 ns
  τα: 3.70 ns
NaCl 220 mM
  f1: 0.191
  f2: 0.425
  f3: 0.284
  α1: 0.636
  α2: 0.282
  α3: 0.081
  τ1: 0.94 ns
  τ2: 4.71 ns
  τ3: 14.81 ns
  τf: 7.87 ns
  τα: 3.13 ns
